Experimental data taken from ChEMBL document CHEMBL6096723, “Discovery of novel capsaicin analogs as TRPV1 inhibitors for the treatment of idiopathic pulmonary fibrosis” (Eur J Med Chem, 2025).
Activity calls are given as the source filed them. The calls are words filed in the database; no cut-off is given here.

Assays:
NIH3T3 [1] = experiment: Anti-fibrotic activity in mouse NIH3T3 cells assessed as inhibition of TGFbeta-induced total collagen production at 10 uM measured after 48 hrs by Sirius Red Collagen Detection Kit relative to control; assay type: functional
[2] = Cytotoxicity against mouse NIH3T3 cells assessed as survival rate at 10 uM measured after 24 hrs by CCK-8 assay relative to control; assay type: toxicity, cell-based; details: read-out: Survival
NIH3T3 [3] = experiment: Inhibition of TGFbeta1-induced proliferation of mouse NIH3T3 cells assessed as colony formation at 10 uM measured after 7 to 14 days by Crystal violet staining based assay; assay type: functional, cell-based; details: time 7-14 day
NIH3T3 [4] = experiment: Anti-fibrotic activity in mouse NIH3T3 cells assessed as inhibition of TGFbeta-induced total collagen production measured after 48 hrs by Sirius Red Collagen Detection Kit relative to control; assay type: functional, cell-based; details: NIH3T3, 48 h
L929 = experiment: Anti-migratory activity in mouse L929 cells assessed as inhibition of TGFbeta1-induced migration at 10 uM measured after 24 hrs by Wound healing assay; assay type: functional, cell-based

Row | SMILES | inhibition at 10 µM (NIH3T3 [1]) [%] | viability at 24 h, 10 µM [2] [%] | inhibition (NIH3T3 [3]) | IC50 (NIH3T3 [4]) [µM] | Activity (L929)
1 | CCCCCCCCC(=O)NCc1ccc(O)c(OC)c1 [NONIVAMIDE] | 58.7 | 92 |  |  | 
2 | COc1ccc(CCC(=O)CCCCc2cccc(O)c2)cc1 | 67.6 | 91.1 | Active | 2.08 | 
3 | COc1cc(/C=C/C(=O)CC(O)/C=C/c2ccc(O)c(OC)c2)ccc1O (configuration not stated) | 19.4 | 85 |  |  | 
4 | CCCCCCCC(=O)NCc1ccc(OC(C)=O)c(OC(C)=O)c1 | 56.3 | 151 |  |  | 
5 | COc1cc(/C=C/C(O)CC(=O)/C=C/c2ccc(O)cc2)ccc1O (configuration not stated) | -41.6 | 88.9 |  |  | 
6 | COc1ccc(CNC(=O)CC(C)C)cc1OC | -41.7 | 88.2 |  |  | 
7 | O=C(CCCCc1ccccc1)NCc1ccc(O)c(O)c1 | 65.2 | 118 |  |  | 
8 | COc1ccc(CCC(=O)CCCCc2cccc(O)c2)cc1O | 60.6 | 95.7 |  |  | 
9 | CCCCCCCC(=O)NCc1ccc(OC)c(OC)c1 | 11.6 | 103 |  |  | 
10 | CC(C)CC(=O)NCc1ccc(O)c(O)c1 | 10.4 | 115 |  |  | 
11 | COC(/C=C/C=C/c1ccccc1)CCc1ccc(O)cc1 (configuration not stated) | 57.7 | 111 |  |  | 
12 | COc1ccc(CCCCC(O)CCc2ccc(OC)c(O)c2)c(OC)c1 (configuration not stated) | 68.5 | 114 |  | 21.9 | 
13 | CC(=O)Oc1ccc(CNC(=O)CC(C)C)cc1OC(C)=O | 11.2 | 124 |  |  | 
14 | COc1ccc(CCC(=O)CC/C=C/c2ccccc2)cc1 | 57.7 | 38.8 |  |  | 
15 | O=C(CCc1ccccc1)CC(O)CCc1ccccc1 (configuration not stated) | 62.9 | 111 |  |  | 
16 | O=C(CCCCc1ccccc1)CCc1ccc(O)cc1 | 49.7 | 117 |  |  | 
17 | O=C(CC/C=C/c1ccccc1)CCc1ccc(O)cc1 | 40.1 | -3.97 |  |  | 
18 | OC(/C=C/C=C/c1ccccc1)CCc1ccccc1 (configuration not stated) | 61.9 | 119 |  |  | 
19 | OC(CCCCc1ccccc1)CCc1ccccc1 (configuration not stated) | 72.2 | 74.1 |  | 1.57 | Active
20 | COC(=O)c1ccc2c(c1)NC(=O)/C2=C(\Nc1ccc(N(C)C(=O)CN2CCN(C)CC2)cc1)c1ccccc1 [NINTEDANIB] | 89.5 | 20.5 | Active | 0.27 | 
21 | CC(=O)Oc1ccc(CCC(CCCCc2ccccc2)OC(C)=O)cc1OC(C)=O (configuration not stated) | 51.9 | 111 |  |  | 
22 | O=C(CC/C=C/c1ccccc1)CCc1ccccc1 | 55.3 | -1.47 |  |  | 
23 | CCCCCC(=O)NCc1ccc(O)c(O)c1 | 60.2 | 118 |  |  | 
24 | COc1cc(CNC(=O)CCCCCCC(C)C)ccc1O [DIHYDROCAPSAICIN] | 50 | 92.3 |  | 20.4 | 
25 | CCCCCCCCC(=O)NCc1ccc(OC(C)=O)c(OC)c1 | 56.4 | 129 |  |  | 

Row | SMILES | inhibition at 10 µM (NIH3T3 [1]) [%] | viability at 24 h, 10 µM [2] [%] | inhibition (NIH3T3 [3]) | IC50 (NIH3T3 [4]) [µM] | Activity (L929)
26 | COc1ccc(CNC(=O)CCCCc2ccccc2)cc1OC | -9.64 | 91.2 |  |  | 
27 | Oc1ccc(/C=C/CCC(O)CCc2ccc(O)cc2)cc1 (configuration not stated) | 60.9 | 132 |  |  | 
28 | CCCCCCCCCC(=O)NCc1ccc(OC)c(OC)c1 | -5.71 | 101 |  |  | 
29 | COc1cc(CCC(O)CC/C=C/c2ccccc2)ccc1O (configuration not stated) | 43.7 | 103 |  |  | 
30 | OC(CCc1ccccc1)CC(O)CCc1ccccc1 (configuration not stated) | 46.9 | 101 |  |  | 
31 | CC(=O)Oc1ccc(CNC(=O)CCCCc2ccccc2)cc1OC(C)=O | 70.6 | 129 | Active | 1.43 | 
32 | CCCCCC(=O)NCc1ccc(OC(C)=O)c(OC(C)=O)c1 | 50.9 | 138 |  |  | 
33 | COc1cc(CNC(=O)CCCC/C=C/C(C)C)ccc1O [CAPSAICIN] | 35.3 | 98.6 |  |  | 
34 | C(=C\C=C\c1ccccc1)/C=C/Cc1ccccc1 | 57.5 | -2.34 |  |  | 
35 | COc1ccc(OC)c(CCCCC(=O)CCc2ccc(OC)c(O)c2)c1 | 59.2 | 96.8 |  |  | 
36 | CC(=O)Oc1ccc(/C=C/C(=O)Cc2ccccc2)cc1OC(C)=O | 18.8 | 149 |  |  | 
37 | Oc1ccc(CCC(O)CC/C=C/c2ccccc2)cc1O (configuration not stated) | 56.6 | 131 |  |  | 
38 | O=C(CCCCc1ccccc1)CCc1ccccc1 | 58.8 | 94.1 |  |  | 
39 | CCCCCCCC(=O)NCc1ccc(O)c(O)c1 | 58.1 | 133 |  |  | 
40 | O=C(/C=C/c1ccc(O)cc1)CC(O)/C=C/c1ccc(O)cc1 (configuration not stated) | 72.8 | 101 |  | 4.76 | Active
41 | CCCCCCCCC(=O)NCc1ccc(O)c(O)c1 | 61.4 | 90.5 |  |  | 
42 | CCCCC(=O)NCc1ccc(OC(C)=O)c(OC(C)=O)c1 | 53 | 131 |  |  | 
43 | CCCCC(=O)NCc1ccc(OC)c(OC)c1 | -2.64 | 86 |  |  | 
44 | CCCCCCCCCC(=O)NCc1ccc(O)c(O)c1 | 64.8 | 121 |  |  | 
45 | CCCCCCCCCC(=O)NCc1ccc(OC(C)=O)c(OC(C)=O)c1 | 68.9 | 141 | Active | 2.63 | 
46 | CCCCCCCCC(=O)NCc1ccc(OC(C)=O)c(OC(C)=O)c1 | 66 | 137 |  |  | 
47 | CCCCCC(=O)NCc1ccc(OC)c(OC)c1 | -9.02 | 85.8 |  |  | 
48 | CCCCC(=O)NCc1ccc(O)c(O)c1 | 54.2 | 123 |  |  | 
49 | COc1ccc(CCC(/C=C/C=C/c2ccccc2)OC)cc1O (configuration not stated) | 63 | 93.2 |  |  | 
